This note sets out measurements from patent US5532242A, “Piperazine derivatives as 5-HT receptors antagonists” (John Wyeth & Brother, Limited, priority 1992, dated 1996).

pIC50: −log10 of the molar value.

Assay [1] concerns the target T1, 5-HT1A receptor (Rattus norvegicus, UniProt P19327).
T1 construct: rat hippocampal membrane homogenate; from tissue; host or cells: rat hippocampal membrane homogenate
T1 sequence (P19327 1-422): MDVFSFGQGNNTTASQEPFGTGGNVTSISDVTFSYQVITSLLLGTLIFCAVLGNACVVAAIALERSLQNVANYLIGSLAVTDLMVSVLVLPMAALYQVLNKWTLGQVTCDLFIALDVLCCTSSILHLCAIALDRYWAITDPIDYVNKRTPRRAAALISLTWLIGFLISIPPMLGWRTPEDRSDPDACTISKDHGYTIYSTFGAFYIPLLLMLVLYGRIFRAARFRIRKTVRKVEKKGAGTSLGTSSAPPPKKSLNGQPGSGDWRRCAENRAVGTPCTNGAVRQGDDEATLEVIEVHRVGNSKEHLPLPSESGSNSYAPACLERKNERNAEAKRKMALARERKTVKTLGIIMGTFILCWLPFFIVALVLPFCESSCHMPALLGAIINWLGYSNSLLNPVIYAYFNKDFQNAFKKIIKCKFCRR
Description: 5-HT1A receptor binding activity in rat hippocampal membrane homogenate. The method, then: The compounds of the invention were tested for 5-HT1A receptor binding activity in rat hippocampal membrane homogenate by the method of B S Alexander and M D Wood, J Pharm Pharmacol, 1988, 40, 888-891.

In assay [2] the target is T2, 5-HT1A receptor (Cavia porcellus, UniProt A0A286Y074).
T2 construct: guinea-pig ileum in vitro; from tissue; host or cells: guinea-pig ileum
T2 sequence (A0A286Y074 1-421): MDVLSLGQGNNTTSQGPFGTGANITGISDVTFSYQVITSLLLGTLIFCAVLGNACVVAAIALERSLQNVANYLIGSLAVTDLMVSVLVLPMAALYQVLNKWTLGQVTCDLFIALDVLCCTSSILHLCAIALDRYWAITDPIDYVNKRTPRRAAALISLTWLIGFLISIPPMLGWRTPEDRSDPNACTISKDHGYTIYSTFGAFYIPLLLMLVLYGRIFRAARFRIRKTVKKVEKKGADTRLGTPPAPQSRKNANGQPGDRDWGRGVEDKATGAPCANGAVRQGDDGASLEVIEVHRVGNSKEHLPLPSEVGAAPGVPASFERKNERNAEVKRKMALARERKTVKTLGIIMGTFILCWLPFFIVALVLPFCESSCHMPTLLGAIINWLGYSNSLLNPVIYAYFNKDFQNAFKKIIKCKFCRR
The assay is described as follows: 5-HT1A receptor antagonism: antagonism of 5-carboxamidotryptamine in the guinea-pig ileum in vitro. The settings on record: read-out: pA2 (converted). The method, then:
The compounds are tested for 5-HT1A receptor antagonism activity in a test involving the antagonism of 5-carboxamidotryptamine in the guinea-pig ileum in vitro (based upon the procedure of Fozard et al, Br J Pharmac, 1985, 86, 601P ).

As for `COc1ccccc1N1CCN(CCN(C(=O)C2CCCCC2)c2ccccc2)CC1` [Example 2, N-(2-(4-(2-Methoxyphenyl)piperazin-1-yl)ethyl)-N-phenylcyclohexanecarboxamide], the pIC50 (commonly the IC50 on a negative log10 scale, so that one unit is a factor of ten) in assay [1] is 8.40. The Kb in assay [2] is 6.31 nM.
